Experimental data as given in US20210147507A1, “METHODS TO AUGMENT OR ALTER SIGNAL TRANSDUCTION” (Bellicum Pharmaceuticals, Inc., priority 2017, published 2021).
Like-named read-outs stand apart in the source and are kept apart here.

What was measured:
[1] = molecular target: wild-type phenylalanine 36 FKBP12 (Homo sapiens, UniProt P62942); settings: cited from earlier work
[2] = test system: CD3+ΔCD19+ iCasp9 T cells / GvHD; assay: Phase I clinical trial of allodepleted T cells transduced with iCasp9 after haploidentical stem cell transplantation; type: in vivo, human
From the text: This example presents results of a phase 1 clinical trial using an alternative suicide gene strategy. Briefly, donor peripheral blood mononuclear cells were co-cultured with recipient irradiated EBV-transformed lymphoblastoid cells (40:1) for 72 hrs., allodepleted with a CD25 immunotoxin and then transduced with a retroviral supernatant carrying the iCasp9 suicide gene and a selection marker (ΔCD19); ΔCD19 allowed enrichment to >90% purity via immunomagnetic selection.
Patients developing grade 1 GvHD were treated with 0.4 mg/kg AP1903 as a 2-hour infusion.
Three patients received iCasp9^+ T cells after haplo-CD34^+ stem cell transplantation (SCT), at dose levels between about 1×10^6 to about 3×10^6 cells/kg.

[3] = test system: HPAC pancreatic cancer cells; assay: T cell anti-tumor assay: PSCA CAR-T cells with iM-X cocultured with HPAC-RFP cells (IncuCyte); type: cell-based, human; settings: 1 nM
Description: The HPAC PSCA^+ tumor cells were stably labeled with nuclear-localized RFP protein using the NucLight™ Red Lentivirus Reagent (Essen Bioscience, 4625). To set up the coculture, 4000 HPAC-RFP cells were seeded per well of 96-well plates in 100 μl of CTL medium without IL-2 for at least 4 hours to allow tumor cells to adhere. After transduction with the appropriate retrovirus and having been allowed to rest for at least 7 days in culture, T were seeded according to various E:T ratios in the HPAC-RFP-containing 96-well plates. […] Each plate was set up in duplicates, one plate to monitor with the IncuCyte and one plate for supernatant collection for ELISA assay on day 2. The plates were centrifuged for 5 min at 400×g and placed inside the IncuCyte (Dual Color Model 4459) to monitor red fluorescence (and green fluorescence if T cells were labeled with GFP-Ffluc) every 2-3 hours for a total of 7 days at 10× objective. Image analysis was performed using the “HPAC-RFP-_TcellsGFP_10×_MLD” processing definition. On day 7, HPAC-RFP cells were analyzed using the “Red Object Count (1/well)” metric. Also on day 7, 0 or 10 nM of suicide drug were added to each well of the coculture and placed back in the IncuCyte to monitor T cell elimination. On day 8, Tcell-GFP cells were analyzed using the “Total Green Object Integrated Intensity” metric. […]

[4] = cited from earlier work; for safety and tolerability (in words): healthy volunteers
cells = assay: Rimiducid amount needed in vitro for effective signaling of cells; type: cell-based
Description: This equates to 14-140 μg/L or ˜0.014-0.14 mg/kg ([…]). The dosage may vary according to the application, and may, in certain examples, be more in the range of 0.1-10 nM, or in the range of 50-150 nM, 10-200 nM, 75-125 nM, 100-500 nM, 100-600 nM, 100-700 nM, 100-800 nM, or 100-900 nM.

wild-type phenylalanine 36 FKBP12, sequence (P62942 whole entry): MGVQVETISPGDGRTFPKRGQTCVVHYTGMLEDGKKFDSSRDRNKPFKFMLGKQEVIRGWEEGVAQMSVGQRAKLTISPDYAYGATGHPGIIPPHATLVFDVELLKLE

CC[C@H](C(=O)N1CCCC[C@H]1C(=O)O[C@H](CCc1ccc(OC)c(OC)c1)c1cccc(OCC(=O)NCCNC(=O)COc2cccc([C@@H](CCc3ccc(OC)c(OC)c3)OC(=O)[C@@H]3CCCCN3C(=O)[C@@H](CC)c3cc(OC)c(OC)c(OC)c3)c2)c1)c1cc(OC)c(OC)c(OC)c1 (relative stereo) [rimiducid, 2-Piperidinecarboxylic acid, 1-[(2S)-1-oxo-2-(3,4,5-trimethoxyphenyl)butyl]-, 1,2-ethanediylbis [imino(2-oxo-2,1-ethanediyl)oxy-3,1-phenylene[(1R)-3-(3,4-Dimethoxyphenyl)propylidene]] ester, [2S-[1(R*),2R*[S*[S*[1(R*),2R1]]]]]-(9C1)]
binding to FKBP12 (in words) [1]: not able to bind
time to resolution of skin and liver GvHD ([2]; after rimiducid administration): ≤ 24 h
ablation of CD3+ΔCD19+ cells ([2]; within 30 minutes of infusion, two patients with grade I/II GvHD): > 90%
further reduction of CD3+ΔCD19+ cells ([2]; within 24 hours): further log reduction
effect on cell growth of tumor or T cell ([3]; Not Transduced (NT) primary T cells): did not affect the cell growth
effect on T cell efficacy ([3]; T cells expressing the inducible chimeric signaling polypeptide): augmented T cell efficacy
duration of the adverse event ([4]; 1.0 mg/kg): 32 min
onset of the adverse event after start of infusion ([4]; 1.0 mg/kg): 3 min
mean Cmax ([4]; 0.01-1.0 mg/kg dose range, infused IV over 2 hours): 10 to 1275 ng/mL
plasma levels versus dose ([4]; 0.01-1.0 mg/kg): directly proportional to dose
adverse event considered possibly related ([4]; 1 volunteer at 1.0 mg/kg): vasodilatation
plasma level, % of maximal concentration ([4]; 0.5 hours post-dose): 18%
plasma level, % of maximal concentration ([4]; 0.5 hours post-dose, listed as Rimiducid): approximately 18%
plasma level, % of maximal concentration ([4]; 2 hours post-dose): ~7%
plasma level, % of maximal concentration ([4]; 10 hours post-dose): ~1%
well-tolerated dose ([4]; Phase I study): up to 1 mg/kg
incidence of adverse events ([4]; following each treatment): very low
safety and tolerability (in words) ([4]; 0.01-1.0 mg/kg): No significant adverse effects
safety and tolerability (in words) ([4]; 0.01-1.0 mg/kg, listed as AP1903): No serious adverse events
pharmacokinetic profile (in words) ([4]; human, in vivo): favorable pharmacokinetic profile
amount needed for effective signaling, converted (cells): 0.014 to 0.14 mg/kg
amount needed in vitro for effective signaling of cells (cells): 10 to 100 nM
amount needed for effective signaling, converted (cells; MW 1412 Da): 14 to 140 µg/L
